From PMC9225722, “Synthesis and biological evaluation of thieno[3,2-c]pyrazol-3-amine derivatives as potent glycogen synthase kinase 3β inhibitors for Alzheimer’s disease” (Journal of Enzyme Inhibition and Medicinal Chemistry, 2022)

Tests used:
GSK-3β = GSK-3β (Homo sapiens, UniProt P49841); assay: GSK-3β kinase assay (calliper mobility shift assay); assay type: biochemical; conditions: for IC50: mean ± SD from two separate experiments, calliper mobility shift assay; for fold less active than 16b (GSK-3β inhibition): compared with 16b
Chain of GSK-3β (P49841 whole entry): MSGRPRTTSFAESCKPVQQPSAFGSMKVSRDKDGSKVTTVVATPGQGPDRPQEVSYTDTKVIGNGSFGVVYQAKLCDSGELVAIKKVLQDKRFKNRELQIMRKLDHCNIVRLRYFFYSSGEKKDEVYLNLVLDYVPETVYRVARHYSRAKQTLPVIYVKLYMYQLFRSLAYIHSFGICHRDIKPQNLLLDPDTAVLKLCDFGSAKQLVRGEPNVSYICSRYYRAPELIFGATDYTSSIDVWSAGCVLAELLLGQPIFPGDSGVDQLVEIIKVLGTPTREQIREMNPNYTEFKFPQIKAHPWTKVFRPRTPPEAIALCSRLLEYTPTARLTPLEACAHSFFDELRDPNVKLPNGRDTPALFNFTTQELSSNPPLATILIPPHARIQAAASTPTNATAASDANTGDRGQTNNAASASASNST

[1] = system: phosphorylation of GSK-3β at Ser9; assay: Western blot of p-GSK-3β (Ser9) in SH-SY5Y cells; assay type: cell-based, human; conditions: LiCl positive control, concentration not given; 2.5 h; control 0.33
Source text: GSK-3β is activated by phosphorylation at Tyr216 and is inhibited by phosphorylation at Ser9 [48]. As one of the substrates of Akt (protein kinase B), GSK-3 can inhibit Akt[49]. The inhibition of GSK-3β increases the p-Akt expression and activates the PI3K/Akt pathway, and that, in turn, phosphorylates the GSK-3β at the Ser9 site[50]^,[51]. […] As shown in Figure 6(A), LiCl greatly promoted GSK-3β phosphorylation at Ser9 (p-GSK-3β/GAPDH: 0.60 vs 0.33). […] Therefore, in cellular level, compound 16b was confirmed to have a direct effect on GSK-3β.
Figure 6. (A) The effect of 16b on phosphorylation of GSK-3β at Ser9; (B) the effect of 16b on β-catenin abundance. Protein expressions were detected by immunoblot analysis with a specific antibody. Values are reported as the mean ± SD of three independent experiments. *p < 0.05, **p < 0.01, ***p < 0.001 vs control.
SH-SY5Y cells (1 × 10^6) were seeded in 12-well plates (Corning, Los Altos, MA, USA) and incubated with compound 16b or LiCl at the indicated concentrations for 2.5 h at 37 °C in 5% CO2. At the end of incubation, cells were lysed by addition of ice-cold RIPA buffer containing a protease inhibitor cocktail. The protein quantification was determined using a BCA protein assay kit (Jiangsu KeyGEN BioTECH Co., Ltd., Nanjing, China). Cellular lysates were mixed with an equal volume of SDS (sodium dodecyl sulfate) loading buffer (Jiangsu KeyGEN BioTECH Co., Ltd., Nanjing, China) and separated by electrophoresis (Bio-rad Power Supplies Basic, Shanghai, China) in polyacrylamide gel. Proteins were transferred from acrylamide gels to nitrocellulose membranes and blocked in a blocking buffer (PBS, 5% non-fat milk) for 1.5 to 2 h at 20 °C. […] The blots were washed by TBST for 20 min and detected with ECL chemiluminescent reagent (Jiangsu KeyGEN BioTECH Co., Ltd., Nanjing, China) for 3 min. Pixel intensity was quantitated using gel imaging system (SYNGENE G:BOX/iChemi XR5, ISS, San Diego, CA, US) and Gel-Pro32 software (Media Cybernetics, Bethesda, MD, USA). […]

SMILES	melting point [°C]	IC50 (GSK-3β) [nM]	further results
O=C(Nc1n[nH]c2cc(-c3cccnc3)sc12)C1CC1 [Compound 16a, N-(5-(pyridin-3-yl)-1H-thieno[3,2-c]pyrazol-3-yl)cyclopropanecarboxamide]	224 to 226	4.4 ± 0.2	
CCCC(=O)Nc1n[nH]c2cc(-c3cccnc3)sc12 [Compound 16c, N-(5-(pyridin-3-yl)-1H-thieno[3,2-c]pyrazol-3-yl)butyramide]	238 to 240	36 ± 1.7	fold less active than 16b (GSK-3β inhibition) (GSK-3β): about 10 fold
CCCS(=O)(=O)Nc1n[nH]c2cc(-c3cccnc3)sc12 [Compound 16d, N-(5-(pyridin-3-yl)-1H-thieno[3,2-c]pyrazol-3-yl)propane-1-sulphonamide]	208 to 210	1390 ± 55.2	GSK-3β inhibitory activity (in words) (GSK-3β): very weak
O=C(Nc1n[nH]c2cc(-c3cccnc3)sc12)c1ccccc1 [Compound 16e, N-(5-(pyridin-3-yl)-1H-thieno[3,2-c]pyrazol-3-yl)benzamide]	> 240	33 ± 1.6	fold less active than 16b (GSK-3β inhibition) (GSK-3β): about 10 fold
O=C(Nc1n[nH]c2cc(-c3cncc(-c4ccccc4)c3)sc12)C1CC1 [Compound 17a, N-(5-(5-Phenylpyridin-3-yl)-1H-thieno[3,2-c]pyrazol-3-yl)cyclopropanecarboxamide]	> 240	20 ± 1.1	fold less active than 16a (GSK-3β inhibition) (GSK-3β; compared with 16a): about 4 fold
CC(C)C(=O)Nc1n[nH]c2cc(-c3cncc(-c4ccccc4)c3)sc12 [Compound 17b, N-(5-(5-Phenylpyridin-3-yl)-1H-thieno[3,2-c]pyrazol-3-yl)isobutyramide]	> 240	14 ± 0.6	fold less active than 16b (GSK-3β inhibition) (GSK-3β): about 4 fold
CCCC(=O)Nc1n[nH]c2cc(-c3cncc(-c4ccccc4)c3)sc12 [Compound 17c, N-(5-(5-Phenylpyridin-3-yl)-1H-thieno[3,2-c]pyrazol-3-yl)butyramide]	> 240	37 ± 1.3	
CCCS(=O)(=O)Nc1n[nH]c2cc(-c3cncc(-c4ccccc4)c3)sc12 [Compound 17d, N-(5-(5-Phenylpyridin-3-yl)-1H-thieno[3,2-c]pyrazol-3-yl)propane-1-sulphonamide]	112 to 114	> 5000	GSK-3β inhibitory activity (in words) (GSK-3β): not active
[Cl-].[Li+] [LiCl, reference compound]			p-GSK-3β/GAPDH ratio (Ser9) [1]: 0.60

Further lines, with some results ahead:

melting point [°C]	IC50 (GSK-3β) [nM]	SMILES	further results
> 240	84 ± 3.2	CC(C)C(=O)Nc1n[nH]c2cc(-c3cnccc3-c3ccccc3)sc12 [Compound 18a, N-(5-(4-Phenylpyridin-3-yl)-1H-thieno[3,2-c]pyrazol-3-yl)isobutyramide]	
> 240	64 ± 2.3	Cc1ccccc1-c1ccncc1-c1cc2[nH]nc(NC(=O)C(C)C)c2s1 [Compound 18b, N-(5-(4-(2-Methylphenyl)pyridin-3-yl)-1H-thieno[3,2-c]pyrazol-3-yl)isobutyramide]	
236 to 238	153 ± 6.6	Cc1cccc(-c2ccncc2-c2cc3[nH]nc(NC(=O)C(C)C)c3s2)c1 [Compound 18c, N-(5-(4-(3-Methylphenyl)pyridin-3-yl)-1H-thieno[3,2-c]pyrazol-3-yl)isobutyramide]	
239 to 240	99 ± 4.8	Cc1ccc(-c2ccncc2-c2cc3[nH]nc(NC(=O)C(C)C)c3s2)cc1 [Compound 18d, N-(5-(4-(4-Methylphenyl)pyridin-3-yl)-1H-thieno[3,2-c]pyrazol-3-yl)isobutyramide]	
213 to 215	64 ± 2.7	COc1ccccc1-c1ccncc1-c1cc2[nH]nc(NC(=O)C(C)C)c2s1 [Compound 18e, N-(5-(4-(2-Methoxyphenyl)pyridin-3-yl)-1H-thieno[3,2-c]pyrazol-3-yl)isobutyramide]	
212 to 214	113 ± 8.6	COc1cccc(-c2ccncc2-c2cc3[nH]nc(NC(=O)C(C)C)c3s2)c1 [Compound 18f, N-(5-(4-(3-Methoxyphenyl)pyridin-3-yl)-1H-thieno[3,2-c]pyrazol-3-yl)isobutyramide]	
> 240	105 ± 5.2	COc1ccc(-c2ccncc2-c2cc3[nH]nc(NC(=O)C(C)C)c3s2)cc1 [Compound 18g, N-(5-(4-(4-Methoxyphenyl)pyridin-3-yl)-1H-thieno[3,2-c]pyrazol-3-yl)isobutyramide]	
> 240	94 ± 3.5	CC(C)C(=O)Nc1n[nH]c2cc(-c3cnccc3-c3ccccc3F)sc12 [Compound 18h, N-(5-(4-(2-Fluorophenyl)pyridin-3-yl)-1H-thieno[3,2-c]pyrazol-3-yl)isobutyramide]	
> 240	173 ± 6.8	CC(C)C(=O)Nc1n[nH]c2cc(-c3cnccc3-c3cccc(F)c3)sc12 [Compound 18i, N-(5-(4-(3-Fluorophenyl)pyridin-3-yl)-1H-thieno[3,2-c]pyrazol-3-yl)isobutyramide]	
> 240	15 ± 0.3	CC(C)C(=O)Nc1n[nH]c2cc(-c3cnccc3-c3ccc(F)cc3)sc12 [Compound 18j, N-(5-(4-(4-Fluorophenyl)pyridin-3-yl)-1H-thieno[3,2-c]pyrazol-3-yl)isobutyramide]	
202 to 204	107 ± 6.1	CC(C)C(=O)Nc1n[nH]c2cc(-c3cnccc3-c3cccc(C(F)(F)F)c3)sc12 [Compound 18k, N-(5-(4-(3-(trifluoromethyl)phenyl)pyridin-3-yl)-1H-thieno[3,2-c]pyrazol-3-yl)isobutyramide]	
> 240	158 ± 8.9	CC(C)C(=O)Nc1n[nH]c2cc(-c3cnccc3-c3ccc(C(F)(F)F)cc3)sc12 [Compound 18l, N-(5-(4-(4-(trifluoromethyl)phenyl)pyridin-3-yl)-1H-thieno[3,2-c]pyrazol-3-yl)isobutyramide]	
159 to 161	387 ± 21.2	CC(C)C(=O)Nc1n[nH]c2cc(-c3cnccc3-c3ccc(-c4ccccc4)cc3)sc12 [Compound 18m, N-(5-(4-([1,1'-Biphenyl]-4-yl)pyridin-3-yl)-1H-thieno[3,2-c]pyrazol-3-yl)isobutyramide]	
> 240	195 ± 10.4	CC(C)C(=O)Nc1n[nH]c2cc(-c3cnccc3-c3ccc4ccccc4c3)sc12 [Compound 18n, N-(5-(4-(naphthalen-2-yl)pyridin-3-yl)-1H-thieno[3,2-c]pyrazol-3-yl)isobutyramide]	fold less active than 18a (GSK-3β inhibition) (GSK-3β; compared with 18a): about 2 fold
